Assay results taken from patent publication US20250281610A1, “P2RY2 ACTIVITY MODULATORS” (Deutsches Krebsforschungszentrum Stiftung des öffentlichen …, priority 2022, published 2025).

Tests used:
Format in all cases: cell-based, human
[1] = tested on: CD33-specific CAR transduced T cells co-cultured with THP-1 cells; assay: T cell cytokine production in co-culture of CD33-specific CAR-T cells with THP-1 cells; conditions: 5 μM AR-C
Experimental: FIG. 8. Effects of P2RY2 antagonist on T cells and cancer cells in T cell-cancer cell co-cultures. T cells transduced with CD33-specific CAR (CAR-T) were co-cultured with genetically edited THP-1 cells in the absence or presence of 5 μM AR-C 118925XX (AR-C) for 6-24 hours. Control cells: THP-1 cells transduced with non-targeting sgRNA and Cas9 (gNT); P2RY2 deficient cells: THP-1 cells transduced with P2RY2-targeting sgRNA and Cas9 (gP2RY2-3, gP2RY2-4); B7-H3 (CD276) deficient cells: THP-1 cells transduced with B7-H3-targeting sgRNA and Cas9 (gCD276-1); P2RY2 and B7-H3 double deficient cells: THP-1 cells transduced with P2RY2-targeting sgRNA, B7-H3-targeting sgRNA, and Cas9 (gCD276-1 gP2RY2-3 DKO, gCD276-1 gP2RY2-4 DKO); P2RY2 overexpression cells: THP-1 cells transduced with the open reading frame of P2RY2 (P2RY2-OE); B7-H3 overexpression cells: THP-1 cells transduced with the open reading frame of CD276 (CD276-OE). Transduced cancer cells were selected by antibiotics according to antibiotic resistance genes carried by the lentiviral constructs. Flow cytometry analysis of expression of production of IFNγ and TNFα within the CD3+CD8+ cell population is shown (values indicate the percentages of positive cells). For the viability of THP-1 cells, normalized cell counts of viable cells after co-culture with CD33-specific CAR-T cells is shown. The end-point cell counts were normalized to the number of THP-1 cells in cultures without T cells.
MART-1 specific T cells were generated as described (Mezzadra et al., Nature 549, 106-110 (2017); Jorritsma et al., Blood 110 (10): 3564-3572. (2007)). […]
The open reading frames of transcripts of P2RY2(ENST00000393597.7) or CD276(ENST00000318443.10), were ordered as a codon optimized gBlock Gene Fragment (Integrated DNA Technologies or Twist Bioscience) and cloned into a lentiviral vector containing a blasticidin selection cassette. […]
MART1-specific CD8+ T cells and MART1 epitope-expressing cancer cells were mixed at a ratio of 1:16 to 1:4. […] T cell activation was assessed by surface staining with anti-CD137-BV421 (4-1BB, Biolegend), anti-CD69-APC/Fire™ 750 (FN50, Biolegend), anti-CD25-AF700 (BC96, Biolegend) antibodies and intracellular staining with anti-IL-2-PE/Cy7 (MQ1-17H12, Biolegend), anti-IFN-7-BV421 (4S.B3, Biolegend), anti-TNF-α-BV785 (MAb11, Biolegend) antibodies, followed by flow cytometry analysis. […] The viability of cancer cells that grow in suspension including THP-1 cells was assessed by flow cytometry-based absolute cell counting using AccuCount beads (Spherotech). For adherent cancer cells including BxPC3 and MCF7, the cell viability was quantified using CellTiter-Blue Cell Viability Assay (Promega).

[2] = tested on: MART-1-specific TCR transduced T cells cultured with MART-1-epitope transduced BxPC3 cells; assay: T cell activation markers in co-culture of MART-1-specific TCR-T cells with MART-1+ BxPC3 cells; conditions: single agent: 5 μM AR-C, 10 μg/ml atezolizumab or 10 μg/ml durvalumab, 6-24 hours, CD8+ MART-1-specific TCR+ population (FIG. 10)
Description: FIG. 10. […] Untreated cells served as the control.
(§1) MART-1 specific T cells were generated as described (Mezzadra et al., Nature 549, 106-110 (2017); Jorritsma et al., Blood 110 (10): 3564-3572. (2007)). To generate CD33-specific chimeric antigen receptor (CAR) T cells, a CD33Hul95-CD28Z CAR (described in WO 2019/178382) cassette was cloned into a retroviral vector, and the resulting virus was used to transduce T cells as described (Mezzadra et al., Nature 549, 106-110 (2017); Jorritsma et al., Blood 110 (10): 3564-3572. (2007)).
MART1-specific CD8+ T cells and MART1 epitope-expressing cancer cells were mixed at a ratio of 1:16 to 1:4. […] T cell activation was assessed by surface staining with anti-CD137-BV421 (4-1BB, Biolegend), anti-CD69-APC/Fire™ 750 (FN50, Biolegend), anti-CD25-AF700 (BC96, Biolegend) antibodies and intracellular staining with anti-IL-2-PE/Cy7 (MQ1-17H12, Biolegend), anti-IFN-7-BV421 (4S.B3, Biolegend), anti-TNF-α-BV785 (MAb11, Biolegend) antibodies, followed by flow cytometry analysis. For intracellular staining, brefeldin A (Biolegend) was added to the cell culture medium 4 h before cells were harvested. The viability of cancer cells that grow in suspension including THP-1 cells was assessed by flow cytometry-based absolute cell counting using AccuCount beads (Spherotech). For adherent cancer cells including BxPC3 and MCF7, the cell viability was quantified using CellTiter-Blue Cell Viability Assay (Promega).

[3] = tested on: BxPC3 cells; assay: Viability of BxPC3 cells in co-culture with MART-1-specific TCR-T cells (CellTiter-Blue); conditions: single agent: 5 μM AR-C, 10 μg/ml atezolizumab or 10 μg/ml durvalumab, 6-24 hours (FIG. 11)
Description: FIG. 11. […] Untreated cells served as the control.
as §1
MART1-specific CD8+ T cells and MART1 epitope-expressing cancer cells were mixed at a ratio of 1:16 to 1:4. Next, cells were centrifugated at 1,600 g for 3 min and incubated at 37° C. and 5% CO2 for 12-72 hours. T cell activation was assessed by surface staining with anti-CD137-BV421 (4-1BB, Biolegend), anti-CD69-APC/Fire™ 750 (FN50, Biolegend), anti-CD25-AF700 (BC96, Biolegend) antibodies and intracellular staining with anti-IL-2-PE/Cy7 (MQ1-17H12, Biolegend), anti-IFN-7-BV421 (4S.B3, Biolegend), anti-TNF-α-BV785 (MAb11, Biolegend) antibodies, followed by flow cytometry analysis. For intracellular staining, brefeldin A (Biolegend) was added to the cell culture medium 4 h before cells were harvested. The viability of cancer cells that grow in suspension including THP-1 cells was assessed by flow cytometry-based absolute cell counting using AccuCount beads (Spherotech). For adherent cancer cells including BxPC3 and MCF7, the cell viability was quantified using CellTiter-Blue Cell Viability Assay (Promega).

[4] = 6-24 hours, P2RY2 proficient THP-1 cells, CD3+CD8+ population (FIG. 8)
[5] = P2RY2 deficient THP-1 cells (FIG. 8)

## Cc1ccc2c(c1)C=Cc1cc(C)ccc1C2c1cn(Cc2ccc(C(=O)Nc3nn[nH]n3)o2)c(=O)[nH]c1=S [AR-C 118925XX]
[1]; [4]
  production of IFNγ by T cells: increased
  production of TNFα by T cells: increased
[1]; [5]
  production of IFNγ in T cell upon P2RY2 deletion: does not influence
  production of TNFα in T cell upon P2RY2 deletion: does not influence
[2]
  expression of CD25 on T cells: elevated
  expression of CD69 on T cells: elevated
  expression of CD137 on T cells: elevated
[3]
  viability of BxPC3 cells: reduced
